# Reference: patent publication US7977345B2, “c-MET modulators and method of use” (Exelixis, Inc., priority 2004, dated 2011)
# Columns and labels:
# Type in all cases: biochemical
# [1] = target: human c-Met kinase domain P948-S1343 (Homo sapiens, UniProt P08581); test: c-Met Luciferase-Coupled Chemiluminescent Kinase assay (LCCA); conditions: 1 μM ATP, 1 μM poly-EY, 10 nM c-Met; read-out: c-Met inhibition IC50
# Protocol: (§1) Kinase activity and compound inhibition are investigated using one or more of the three assay formats described below. The ATP concentrations for each assay are selected to be close to the Michaelis-Menten constant (KM) for each individual kinase. Dose-response experiments are performed at 10 different inhibitor concentrations in a 384-well plate format. The data are fitted to the following four-parameter equation: Y=Min+(Max−Min)/(1+(X/IC50)^H) where Y is the observed signal, X is the inhibitor concentration, Min is the background signal in the absence of enzyme (0% enzyme activity), Max is the signal in the absence of inhibitor (100% enzyme activity), IC50 is the inhibitor concentration at 50% enzyme inhibition and H represents the empirical Hill's slope to measure the cooperativity. Typically H is close to unity. c-Met Assay
# c-Met biochemical activity was assessed using a Luciferase-Coupled Chemiluminescent Kinase assay (LCCA) format as described above. Again, kinase activity was measured as the percent ATP remaining following the kinase reaction. Remaining ATP was detected by luciferase-luciferin-coupled chemiluminescence. Specifically, the reaction was initiated by mixing test compounds, 1 μM ATP, 1 μM poly-EY and 10 nM c-Met (baculovirus expressed human c-Met kinase domain P948-S1343) in a 20 uL assay buffer (20 mM Tris-HCL pH7.5, 10 mM MgCl2, 0.02% Triton X-100, 100 mM DTT, 2 mM MnCl2). The mixture is incubated at ambient temperature for 2 hours after which 20 uL luciferase-luciferin mix is added and the chemiluminescent signal read using a Wallac Victor^2 reader. The luciferase-luciferin mix consists of 50 mM HEPES, pH 7.8, 8.5 ug/mL oxalic acid (pH 7.8), 5 (or 50) mM DTT, 0.4% Triton X-100, 0.25 mg/mL coenzyme A, 63 uM AMP, 28 ug/mL luciferin and 40,000 units of light/mL luciferase.
# [2] = target: T1, human KDR kinase domain D807-V1356 (Homo sapiens, UniProt P35968); test: KDR Luciferase-Coupled Chemiluminescent Kinase assay (LCCA); conditions: 3 μM ATP, 1.6 μM poly-EY, 5 nM KDR; read-out: KDR inhibition IC50
# T1 construct: baculovirus expressed human KDR kinase domain D807-V1356; made in house
# T1 sequence (P35968 807-1356): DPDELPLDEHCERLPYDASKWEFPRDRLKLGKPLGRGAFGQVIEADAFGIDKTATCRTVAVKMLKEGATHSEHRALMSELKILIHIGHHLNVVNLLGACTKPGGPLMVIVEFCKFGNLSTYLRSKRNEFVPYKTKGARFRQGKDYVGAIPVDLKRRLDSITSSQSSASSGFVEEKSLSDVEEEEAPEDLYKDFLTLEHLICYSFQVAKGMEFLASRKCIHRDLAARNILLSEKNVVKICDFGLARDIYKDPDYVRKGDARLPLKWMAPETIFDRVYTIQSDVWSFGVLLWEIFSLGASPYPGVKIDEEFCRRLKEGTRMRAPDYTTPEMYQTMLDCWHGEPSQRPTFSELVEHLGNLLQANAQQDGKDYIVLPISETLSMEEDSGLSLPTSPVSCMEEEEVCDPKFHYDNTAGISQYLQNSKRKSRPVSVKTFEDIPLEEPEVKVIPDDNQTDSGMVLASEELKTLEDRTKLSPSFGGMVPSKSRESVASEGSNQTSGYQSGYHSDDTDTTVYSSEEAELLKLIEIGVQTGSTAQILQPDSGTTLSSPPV
# Protocol: as §1
# KDR biochemical activity was assessed using a Luciferase-Coupled Chemiluminescent Kinase assay (LCCA) format. Kinase activity was measured as the percent ATP remaining following the kinase reaction. Remaining ATP was detected by luciferase-luciferin-coupled chemiluminescence. Specifically, the reaction was initiated by mixing test compounds, 3 μM ATP, 1.6 μM poly-EY and 5 nM KDR (baculovirus expressed human KDR kinase domain D807-V1356) in a 20 uL assay buffer (20 mM Tris-HCL pH7.5, 10 mM MgCl2, 0.01% Triton X-100, 1 mM DTT, 3 mM MnCl2). The mixture is incubated at ambient temperature for 4 hours after which 20 uL luciferase-luciferin mix is added and the chemiluminescent signal read using a Wallac Victor^2 reader. The luciferase-luciferin mix consists of 50 mM HEPES, pH 7.8, 8.5 ug/mL oxalic acid (pH 7.8), 5 (or 50) mM DTT, 0.4% Triton X-100, 0.25 mg/mL coenzyme A, 63 uM AMP, 28 ug/mL luciferin and 40,000 units of light/mL luciferase.
# [3] = target: T2, human Flt-3 kinase domain R571-S993 (Homo sapiens, UniProt P36888); test: flt-3 Luciferase-Coupled Chemiluminescent Kinase assay (LCCA); conditions: 5 μM ATP, 3 μM poly-EY, 5 nM Flt-3; read-out: flt-3 inhibition IC50
# T2 construct: baculovirus expressed human Flt-3 kinase domain R571-S993; made in house
# T2 sequence (P36888 571-993): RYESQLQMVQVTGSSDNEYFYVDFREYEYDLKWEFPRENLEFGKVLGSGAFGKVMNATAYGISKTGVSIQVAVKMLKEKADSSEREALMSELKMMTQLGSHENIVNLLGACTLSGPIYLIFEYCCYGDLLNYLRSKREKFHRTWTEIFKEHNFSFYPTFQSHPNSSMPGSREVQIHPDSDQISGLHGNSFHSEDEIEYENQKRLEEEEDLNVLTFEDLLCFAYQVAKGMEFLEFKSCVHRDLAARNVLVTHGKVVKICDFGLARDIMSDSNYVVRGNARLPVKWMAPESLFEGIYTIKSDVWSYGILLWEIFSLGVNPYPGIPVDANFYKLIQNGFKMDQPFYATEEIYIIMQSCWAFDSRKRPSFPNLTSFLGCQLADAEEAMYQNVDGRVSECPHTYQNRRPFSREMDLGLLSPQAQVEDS
# Protocol: as §1
# Biochemical activity for flt-3 was assessed using a Luciferase-Coupled Chemiluminescent Kinase assay (LCCA) format. Kinase activity was measured as the percent ATP remaining following the kinase reaction. Remaining ATP was detected by luciferase-luciferin-coupled chemiluminescence. Specifically, the reaction was initiated by mixing test compounds, 5 μM ATP, 3 μM poly-EY and 5 nM Flt-3 (baculovirus expressed human Flt-3 kinase domain R571-S993) in a 20 uL assay buffer (20 mM Tris-HCL pH7.5, 10 mM MgCl2, 0.01% Triton X-100, 1 mM DTT, 2 mM MnCl2). The mixture is incubated at ambient temperature for 3 hours after which 20 uL luciferase-luciferin mix is added and the chemiluminescent signal read using a Wallac Victor^2 reader. The luciferase-luciferin mix consists of 50 mM HEPES, pH 7.8, 8.5 ug/mL oxalic acid (pH 7.8), 5 (or 50) mM DTT, 0.4% Triton X-100, 0.25 mg/mL coenzyme A, 63 uM AMP, 28 ug/mL luciferin and 40,000 units of light/mL luciferase.
# Chain of human c-Met kinase domain P948-S1343 (P08581 1011-1367 limits assumed): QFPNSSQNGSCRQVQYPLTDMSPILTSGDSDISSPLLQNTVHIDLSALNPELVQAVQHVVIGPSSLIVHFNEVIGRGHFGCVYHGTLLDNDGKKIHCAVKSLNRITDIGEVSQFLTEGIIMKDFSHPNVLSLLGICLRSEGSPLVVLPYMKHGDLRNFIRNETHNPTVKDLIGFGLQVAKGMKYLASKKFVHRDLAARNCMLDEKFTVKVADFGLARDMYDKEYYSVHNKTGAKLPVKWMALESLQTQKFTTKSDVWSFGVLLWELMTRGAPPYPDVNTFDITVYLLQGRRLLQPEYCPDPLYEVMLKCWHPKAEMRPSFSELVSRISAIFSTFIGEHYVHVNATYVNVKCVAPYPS
Structure (SMILES),IC50 [1] [nM],IC50 [2] [nM],IC50 [3] [nM]
"O=C(Nc1ccc(F)cc1)C1(C(=O)Nc2ccc(Oc3ncnc4[nH]ncc34)cc2)CC1 [Entry 6, N-(4-fluorophenyl)-N′-[4-(1H-pyrazolo[3,4-d]pyrimidin-4-yloxy)phenyl]cyclopropane-1,1-dicarboxamide]",> 500,50 to 500,
"O=C(Cc1ccccc1)NC(=S)Nc1ccc(Oc2ncnc3[nH]ncc23)cc1 [Entry 7, 2-phenyl-N-({[4-(1H-pyrazolo[3,4-d]pyrimidin-4-yloxy)phenyl]amino}carbonothioyl)acetamide]",> 500,> 500,
"O=C(Nc1ccc(F)cc1)C1(C(=O)Nc2ccc(Oc3ncnc4c3ncn4C3CCCCO3)cc2)CC1 (stereo not shown) [Entry 8, N-(4-fluorophenyl)-N′-(4-{[9-(tetrahydro-2H-pyran-2-yl)-9H-purin-6-yl]oxy}phenyl)cyclopropane-1,1-dicarboxamide]",> 500,> 500,
"O=C(Cc1ccccc1)NC(=S)Nc1ccc(Oc2ncnc3c2ncn3C2CCCCO2)cc1 (stereo not shown) [Entry 9, 2-phenyl-N-{[(4-{[9-(tetrahydro-2H-pyran-2-yl)-9H-purin-6-yl]oxy}phenyl)amino]carbonothioyl}acetamide]",> 500,> 500,
"O=C(Nc1ccc(F)cc1)C1(C(=O)Nc2ccc(Oc3ncnc4[nH]cnc34)cc2)CC1 [Entry 10, N-(4-fluorophenyl)-N′-[4-(9H-purin-6-yloxy)phenyl]cyclopropane-1,1-dicarboxamide]",> 500,> 500,
"O=C(Cc1ccccc1)NC(=S)Nc1ccc(Oc2ncnc3[nH]cnc23)cc1 [Entry 11, 2-phenyl-N-({[4-(9H-purin-6-yloxy)phenyl]amino}carbonothioyl)acetamide]",> 500,> 500,

# Other lines, results leading:
IC50 [1] [nM],IC50 [2] [nM],IC50 [3] [nM],Structure (SMILES)
50 to 500,50 to 500,< 50,"O=C(CC(=O)Nc1ccc(Oc2ncnc3[nH]ccc23)c(F)c1)Nc1ccc(F)cc1 [Entry 1, N-(4-fluorophenyl)-N′-[3-fluoro-4-(7H-pyrrolo[2,3-d]pyrimidin-4-yloxy)phenyl]propanediamide]"
< 50,< 50,50 to 500,"O=C(Nc1ccc(F)cc1)C1(C(=O)Nc2ccc(Oc3ncnc4[nH]ccc34)c(F)c2)CC1 [Entry 2, N-(4-fluorophenyl)-N′-[3-fluoro-4-(7H-pyrrolo[2,3-d]pyrimidin-4-yloxy)phenyl]cyclopropane-1,1-dicarboxamide]"
< 50,50 to 500,> 500,"O=C(Cc1ccccc1)NC(=S)Nc1ccc(Oc2ncnc3[nH]ccc23)c(F)c1 [Entry 3, N-({[3-fluoro-4-(7H-pyrrolo[2,3-d]pyrimidin-4-yloxy)phenyl]amino}carbonothioyl)-2-phenylacetamide]"
> 500,> 500,,"O=C(Nc1ccc(F)cc1)C1(C(=O)Nc2ccc(Oc3ncnc4c3cnn4C3CCCCO3)cc2)CC1 (stereo not shown) [Entry 4, N-(4-fluorophenyl)-N′-(4-{[1-(tetrahydro-2H-pyran-2-yl)-1H-pyrazolo[3,4-d]pyrimidin-4-yl]oxy}phenyl)cyclopropane-1,1-dicarboxamide]"
> 500,> 500,,"O=C(Cc1ccccc1)NC(=S)Nc1ccc(Oc2ncnc3c2cnn3C2CCCCO2)cc1 (stereo not shown) [Entry 5, 2-phenyl-N-{[(4-{[1-(tetrahydro-2H-pyran-2-yl)-1H-pyrazolo[3,4-d]pyrimidin-4-yl]oxy}phenyl)amino]carbonothioyl}acetamide]"
< 50,< 50,< 50,"O=C(NCCN1CCOCC1)c1cc2c(Oc3ccc(NC(=O)C4(C(=O)Nc5ccc(F)cc5)CC4)cc3F)ncnc2[nH]1 [Entry 12, N-{3-fluoro-4-[(6-{[(2-morpholin-4-ylethyl)amino]carbonyl}-7H-pyrrolo[2,3-d]pyrimidin-4-yl)oxy]phenyl}-N′-(4-fluorophenyl)cyclopropane-1,1-dicarboxamide]"
